Measured values reported in patent US20250326744A1, “PIPERAZINE DERIVATIVE OR SALT THEREOF, AND PHARMACEUTICAL COMPOSITION” (priority 2022, published 2025).
Where a name gives a salt, the structure may show the parent alone.

Assays:
[1] = system: mexB (PA) strain; experiment: Combinational effect with antibacterial agent against Pseudomonas aeruginosa (Test Examples 2 and 4): mexB (PA) strain with LVFX, TC or AZT at 1/4 MIC, EC99; format: cell-based; conditions: Table 52, Test Example 2, 16 to 20 hours culture, OD595; for EC99, mexB (PA), AZT: combined with AZT at 1/4 MIC; for EC99, mexB (PA), LVFX: combined with LVFX at 1/4 MIC
Outline: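 P. aeruginosa mexB (PA) strain, lacking MexCD-OprJ, MexEF-OprN and MexXY and overexpressing MexAB-OprM, grown 16–20 h in CAMHB (10^4–5 CFU/well) with LVFX, TC or AZT at ¼ MIC plus test compound at 0–800 μM. Growth read as OD595; EC99 is the lowest compound concentration giving ≥99% growth inhibition.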

[2] = system: mexY (EC) strain; experiment: Efflux ability inhibition effect on drug efflux pump MexY (Test Examples 1 and 3): proliferation (OD595) of mexY (EC) strain with EM or LVFX at 1/4 MIC, EC75; format: cell-based, Escherichia coli; conditions: Table 51, Test Example 1, 16 to 20 hours culture, OD595; for EC75, mexY (EC) strain, EM: combined with EM at 1/4 MIC; for EC75, mexY (EC) strain, LVFX: combined with LVFX at 1/4 MIC
Description: The efflux ability inhibition effect of the test compound on the drug efflux pump was evaluated using the bacterial proliferative ability in the presence of EM or LVFX as an index.
EM is a macrolide antibacterial agent and is a drug that is discharged outside the bacteria by MexB and MexY LVFX is a quinolone antibacterial agent and is a drug that is discharged outside the bacteria by MexB and MexY In a case where the test compound has an efflux ability inhibitory ability against the drug efflux pump, the proliferation of bacteria is suppressed by the combined use of EM or LVFX and the test compound, as compared with the case where EM or LVFX is used alone.
A mutant strain (hereinafter, referred to as an “mexB (EC) strain”) obtained by transferring the genes of the main multidrug efflux system MexAB-OprM of Pseudomonas aeruginosa described in Nature, 2013, Vol. 500, pp. 102 to 106 as a plasmid into Escherichia coli strains in which the acrB and tolC genes of the multidrug efflux system AcrAB-TolC were deleted as described in Journal of Infection and Chemotherapy 2008, Vol. 14, pp. 23 to 29, and a gene transfer strain (hereinafter, referred to as an “mexY (EC) strain”) of another main multidrug efflux system MexXY-OprM of Pseudomonas aeruginosa were used for the evaluation of test compounds.
In the mexB (EC) strain, an expression level of MexB of the drug efflux pump is accelerated, and in the mexY (EC) strain, an expression level of MexY of the drug efflux pump is accelerated.
For culturing each Escherichia coli strain, a 96-well plate (amount of culture medium per well: 100 μL) was used and Luria-Bertani broth (LB) culture medium was used. The inoculation amount of the bacteria was set to 10^4 to 5 CFU/well.
The mexB (EC) strain and the mexY (EC) strain were cultured for 16 to 20 hours in a culture medium to which EM or LVFX and test compounds at various concentrations (0 to 800 μM) were added, and the proliferation of the bacterial strains was evaluated by optical turbidity at 595 nm (OD595). The concentration of the antibacterial agents (EM and LVFX) in the culture medium were each set to ¼ of the minimum inhibitory concentration (MIC) (hereinafter, referred to as ¼ MIC) of the single antibacterial agent.
The proliferation of bacteria in a case where the antibacterial agent was added at the concentration of ¼ MIC in a case where the test compound was not added was measured, and compared with the proliferation of bacteria in a case where the test compound was contained, and the lowest concentration of the test compound at which the proliferation was inhibited by 75% or more was defined as the drug efflux pump inhibitory ability of the test compound as 75% inhibitory effect concentration (EC75).
The drug efflux pump inhibitory ability of each test compound in a case of being used in combination with the antibacterial agent against the mexB (EC) strain and the mexY (EC) strain was evaluated as follows according to the value of EC75. • S: EC75≤[…] • A: 12.5 μM<EC75≤25 μM • B: 25 μM<EC75≤100 μM • C: […]
In the same manner as in Test Example 1, the efflux ability inhibition effect of the test compound on the drug efflux pump was evaluated using the bacterial proliferation ability in the presence of EM or LVFX as an index.

SMILES: O=C(CN1CCN(CCc2ccccc2)CC1)N1CCN(Cc2c(O)cccc2Cl)CC1 [Example 229, Hydrochloride of 1-(4-(2-chloro-6-hydroxybenzyl)piperazin-1-yl)-2-(4-phenethylpiperazin-1-yl)ethan-1-one]
- EC99, mexB (PA), AZT [1]: B (25 μM<EC99≤100 μM)
- EC99, mexB (PA), LVFX [1]: B (25 μM<EC99≤100 μM)
- EC75, mexY (EC) strain, EM [2]: B (25 μM<EC75≤100 μM)
- EC75, mexY (EC) strain, LVFX [2]: B (25 μM<EC75≤100 μM)

SMILES: CCOc1cccc(F)c1CN1CCN(C(=O)[C@H](N)C2CCN(CCC3(C)CCCCC3)CC2)CC1 [Example 126, Hydrochloride of (R)-2-amino-1-(4-(2-ethoxy-6-fluorobenzyl)piperazin-1-yl)-2-(1-(2-(1-methylcyclohexyl)ethyl)piperidin-4-yl)ethan-1-one]
- EC75, mexY (EC) strain, EM [2]: A (12.5 μM<EC75≤25 μM)
- EC75, mexY (EC) strain, LVFX [2]: A (12.5 μM<EC75≤25 μM)

SMILES: COc1ccccc1CN1CCN(C(=O)CN2CCC(C#Cc3ccccc3)CC2)CC1 [Example 405, Hydrochloride of 1-(4-(2-methoxybenzyl)piperazin-1-yl)-2-(4-(phenylethynyl)piperidin-1-yl)ethan-1-one]
- EC99, mexB (PA), AZT [1]: B (25 μM<EC99≤100 μM)
- EC99, mexB (PA), LVFX [1]: A (12.5 μM<EC99≤25 μM)
- EC75, mexY (EC) strain, EM [2]: B (25 μM<EC75≤100 μM)
- EC75, mexY (EC) strain, LVFX [2]: B (25 μM<EC75≤100 μM)

SMILES: CCOc1cccc(F)c1CN1CCN(C(=O)[C@H](N)C2CCN(CCc3cc(Cl)ccc3-c3ccccc3C#N)CC2)CC1 [Example 64, Hydrobromide of (R)-2′-(2-(4-(1-amino-2-(4-(2-ethoxy-6-fluorobenzyl)piperazin-1-yl)-2-oxoethyl)piperidin-1-yl)ethyl)-4′-chloro-[1,1′-biphenyl]-2-carbonitrile]
- EC75, mexY (EC) strain, EM [2]: A (12.5 μM<EC75≤25 μM)

SMILES: COc1ccccc1CN1CCN(C(=O)CN2CCC(/C=C/c3ccccc3)CC2)CC1 [Example 400, hydrochloride of (E)-1-(4-(2-methoxybenzyl)piperazin-1-yl)-2-(4-styrylpiperidin-1-yl)ethan-1-one]
- EC99, mexB (PA), AZT [1]: A (12.5 μM<EC99≤25 μM)
- EC99, mexB (PA), LVFX [1]: S (EC99≤12.5 μM)
- EC75, mexY (EC) strain, EM [2]: B (25 μM<EC75≤100 μM)
- EC75, mexY (EC) strain, LVFX [2]: B (25 μM<EC75≤100 μM)

SMILES: CCOc1cccc(F)c1CN1CCN(C(=O)[C@H](N)C2CCN(CCC3CCCCC3)CC2)CC1 [Example 47, Hydrobromide of (R)-2-amino-2-(1-(2-cyclohexylethyl)piperidin-4-yl)-1-(4-(2-ethoxy-6-fluorobenzyl)piperazin-1-yl)ethan-1-one]
- EC75, mexY (EC) strain, EM [2]: A (12.5 μM<EC75≤25 μM)
- EC75, mexY (EC) strain, LVFX [2]: A (12.5 μM<EC75≤25 μM)

SMILES: COc1ccccc1CN1CCN(C(=O)CN2CCC(C(=O)Nc3ccccc3)CC2)CC1 [Example 408, Hydrochloride of 1-(2-(4-(2-methoxybenzyl)piperazin-1-yl)-2-oxoethyl)-N-phenylpiperidine-4-carboxamide]
- EC75, mexY (EC) strain, EM [2]: B (25 μM<EC75≤100 μM)
- EC75, mexY (EC) strain, LVFX [2]: B (25 μM<EC75≤100 μM)

SMILES: COc1ccccc1CN1CCN(C(=O)CN2CCN(CCc3ccoc3)CC2)CC1 [Example 291, 2-(4-(2-(Furan-3-yl)ethyl)piperazin-1-yl)-1-(4-(2-methoxybenzyl)piperazin-1-yl)ethan-1-one and hydrochloride thereof]
- EC75, mexY (EC) strain, EM [2]: B (25 μM<EC75≤100 μM)

SMILES: COc1ccccc1CN1CCN(C(=O)CN2CCC(CCc3ccccc3)(COCc3ccccc3)CC2)CC1 [Example 403, Hydrochloride of 2-(4-((benzyloxy)methyl)-4-phenethylpiperidin-1-yl)-1-(4-(2-methoxybenzyl)piperazin-1-yl)ethan-1-one]
- EC99, mexB (PA), AZT [1]: S (EC99≤12.5 μM)
- EC99, mexB (PA), LVFX [1]: S (EC99≤12.5 μM)
- EC75, mexY (EC) strain, LVFX [2]: B (25 μM<EC75≤100 μM)

SMILES: CCOc1cccc(F)c1CN1CCN(C(=O)[C@H](N)C2CCN(CCC34CC5CC(CC(C5)C3)C4)CC2)CC1 [Example 125]
- EC75, mexY (EC) strain, EM [2]: A (12.5 μM<EC75≤25 μM)

SMILES: COc1ccccc1CN1CCN(C(=O)CN2CCN(CCc3ccc(F)cc3)CC2)CC1 [Example 277, 2-(4-(4-Fluorophenethyl)piperazin-1-yl)-1-(4-(2-methoxybenzyl)piperazin-1-yl) ethan-1-one and hydrochloride thereof]
- EC99, mexB (PA), AZT [1]: B (25 μM<EC99≤100 μM)
- EC99, mexB (PA), LVFX [1]: B (25 μM<EC99≤100 μM)
- EC75, mexY (EC) strain, EM [2]: B (25 μM<EC75≤100 μM)
- EC75, mexY (EC) strain, LVFX [2]: B (25 μM<EC75≤100 μM)

SMILES: O=C(CN1CCN(CCc2ccccc2)CC1)N1CCN(Cc2cccc3ccccc23)CC1 [Example 238]
- EC99, mexB (PA), AZT [1]: B (25 μM<EC99≤100 μM)
- EC99, mexB (PA), LVFX [1]: B (25 μM<EC99≤100 μM)
- EC75, mexY (EC) strain, EM [2]: B (25 μM<EC75≤100 μM)
- EC75, mexY (EC) strain, LVFX [2]: B (25 μM<EC75≤100 μM)

SMILES: COc1ccccc1CN1CCN(C(=O)CN2CCC(CCc3ccccc3)(NC(N)=O)CC2)CC1 [Example 416, hydrochloride of 1-(1-(2-(4-(2-methoxybenzyl)piperazin-1-yl)-2-oxoethyl)-4-phenethylpiperidin-4-yl)urea]
- EC75, mexY (EC) strain, EM [2]: B (25 μM<EC75≤100 μM)
- EC75, mexY (EC) strain, LVFX [2]: B (25 μM<EC75≤100 μM)

SMILES: CCOc1cccc(F)c1CN1CCN(C(=O)[C@H](N)C2CCN(CCn3c(=O)ccc4ncc(F)cc43)CC2)CC1 [Example 14, Hydrobromide of (R)-1-(2-(4-(1-amino-2-(4-(2-ethoxy-6-fluorobenzyl)piperazin-1-yl)-2-oxoethyl)piperidin-1-yl)ethyl)-7-fluoro-1,5-naphthyridin-2(1H)-one]
- EC75, mexY (EC) strain, EM [2]: B (25 μM<EC75≤100 μM)
- EC75, mexY (EC) strain, LVFX [2]: B (25 μM<EC75≤100 μM)

SMILES: O=C(CN1CCN(CCc2ccccc2)CC1)N1CCN(CC2CCCCC2)CC1 [Example 210, Hydrochloride of 1-(4-(cyclohexylmethyl)piperazin-1-yl)-2-(4-phenethylpiperazin-1-yl)ethan-1-one]
- EC75, mexY (EC) strain, EM [2]: B (25 μM<EC75≤100 μM)

SMILES: COc1ccccc1CN1CCN(C(=O)[C@H](NCc2ccccc2)C2CCN(CCc3cccc(Cl)c3)CC2)CC1 [Example 142, hydrochloride of (R)-2-(benzylamino)-2-(1-(3-chlorophenethyl)piperidin-4-yl)-1-(4-(2-methoxybenzyl)piperazin-1-yl)ethan-1-one]
- EC75, mexY (EC) strain, EM [2]: B (25 μM<EC75≤100 μM)
- EC75, mexY (EC) strain, LVFX [2]: B (25 μM<EC75≤100 μM)

SMILES: COc1ccccc1CN1CCN(C(=O)C(F)(F)C2CCN(CCc3ccccc3)CC2)CC1 [Example 299, hydrochloride of 2,2-difluoro-1-(4-(2-methoxybenzyl)piperazin-1-yl)-2-(1-phenethylpiperidin-4-yl)ethan-1-one]
- EC75, mexY (EC) strain, EM [2]: B (25 μM<EC75≤100 μM)
- EC75, mexY (EC) strain, LVFX [2]: B (25 μM<EC75≤100 μM)
